Source: ChEMBL document CHEMBL4138122, “Azaphenothiazines - promising phenothiazine derivatives. An insight into nomenclature, synthesis, structure elucidation and biological properties” (Eur J Med Chem, 2017)
≈ marks a conversion by molar mass, not a printed value.

Experiments:
[1] = system: Mus musculus; test: Neuropharmacological activity in iv dosed Charles River Swiss mouse assessed as minimum dose at which reactive signs were observed in half of mouse tested; type: functional
[2] = system: Enterococcus faecalis; test: Antibacterial activity against Enterococcus faecalis; type: functional
[3] = system: MCF7; test: Cytotoxicity against human MCF7 cells incubated for 72 hrs by WST1 dye based assay; type: functional, cell-based; details: MCF7, 72 h
[4] = Inhibition of soybean 15-lipoxygenase; design: species or system Glycine max
[5] = system: Human immunodeficiency virus; test: Antiviral activity against HIV infected in human MT4 cells; type: functional, organism-based; details: Human immunodeficiency virus 1, MT4
[6] = system: SNB-19; test: Cytotoxicity against human SNB19 cells incubated for 72 hrs by WST1 dye based assay; type: functional, cell-based; details: SNB-19, 72 h
[7] = Inhibition of LTB4 formation in rat polymorphonuclear leukocytes preincubated for 2 mins followed by A-23187 addition after 4 mins; type: functional, cell-based
[8] = system: Rattus norvegicus; test: Anti-asthmatic activity in rat assessed as inhibition of egg albumin-induced duration of symptoms of dyspnoea at 3 mg/kg, po administered 90 mins prior to dyspnoea induction; type: functional
[9] = system: Rattus norvegicus; test: Anti-asthmatic activity in rat assessed as inhibition of egg albumin-induced duration of symptoms of dyspnoea at 5 mg/kg, po administered 90 mins prior to dyspnoea induction; type: functional
[10] = system: Mycobacterium tuberculosis; test: Antitubercular activity against Mycobacterium tuberculosis H37Rv; type: functional
[11] = system: Mus musculus; test: Analgesic activity in mouse assessed as reduction in phenylquinone-induced number of writhes at 20 mg/kg, ip; type: functional; design: scale not given: the % may be the effect or the level left
[12] = molecular target: Cholinesterase (Equus caballus) (UniProt P81908); test: Inhibition of horse serum BChE at 10 uM
Cholinesterase (Equus caballus), sequence (P81908 whole entry): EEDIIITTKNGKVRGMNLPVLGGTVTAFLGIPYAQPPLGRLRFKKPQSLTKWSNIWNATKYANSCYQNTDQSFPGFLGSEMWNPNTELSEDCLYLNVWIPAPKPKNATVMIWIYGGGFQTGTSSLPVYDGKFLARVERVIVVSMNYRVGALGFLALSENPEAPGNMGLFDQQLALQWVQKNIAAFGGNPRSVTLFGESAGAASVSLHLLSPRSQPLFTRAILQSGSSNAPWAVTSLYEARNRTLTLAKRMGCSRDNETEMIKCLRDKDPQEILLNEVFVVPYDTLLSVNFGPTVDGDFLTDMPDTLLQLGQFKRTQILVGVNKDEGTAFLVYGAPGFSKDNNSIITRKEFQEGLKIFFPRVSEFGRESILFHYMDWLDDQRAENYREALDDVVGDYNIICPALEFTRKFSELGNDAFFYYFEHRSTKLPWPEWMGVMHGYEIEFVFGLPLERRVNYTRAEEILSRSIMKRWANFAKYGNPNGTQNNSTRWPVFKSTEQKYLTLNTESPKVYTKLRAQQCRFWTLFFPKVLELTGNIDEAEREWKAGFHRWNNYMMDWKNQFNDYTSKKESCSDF

[13] = molecular target: Cholinesterase (Equus caballus, UniProt P81908); test: Inhibition of horse serum BChE
Cholinesterase, sequence (P81908 whole entry): as above

[14] = Antioxidant activity assessed as DPPH radical scavenging activity; type: functional; details: dose or concentration not given here
[15] = species: Mus musculus; test: Antioxidant activity in Swiss albino mouse assessed as GSH level per mg tissue; type: functional
[16] = species: Mus musculus; test: Antioxidant activity in Swiss albino mouse assessed as LPO level per mg tissue; type: functional
[17] = system: UO-31; test: Growth inhibition of human UO31 cells at 10 uM; type: functional; details: read-out: GI
[18] = system: Aspergillus niger; test: Antifungal activity against Aspergillus niger by CLSI protocol based method; type: functional
[19] = system: Aspergillus niger; test: Antifungal activity against Aspergillus niger; type: functional
[20] = system: Candida albicans; test: microbe, parasite or virus in culture
Description: Antimicrobial activity against Candida albicans

[21] = Antioxidant activity assessed as H2O2 scavenging activity; type: functional; details: dose or concentration not given here
[22] = system: Escherichia coli; test: Antibacterial activity against Escherichia coli; type: functional; details: Escherichia coli
[23] = system: Bacillus cereus; test: Antibacterial activity against Bacillus cereus; type: functional, organism-based
[24] = system: Salmonella typhimurium; test: Antibacterial activity against Salmonella typhimurium; type: functional, Salmonella enterica subsp. enterica serovar Typhimurium; details: Salmonella enterica
[25] = system: Staphylococcus aureus; test: Antibacterial activity against Staphylococcus aureus; type: functional; details: Staphylococcus aureus; read-out: MIC
[26] = system: PBMC; test: Inhibition of PHA-induced cell proliferation of human PBMC at 50 ug/ml incubated for 4 days by MTT method; type: functional; details: 96 h
[27] = system: PBMC; test: Inhibition of LPS-induced TNFalpha profduction in human PBMC at 5 ug/ml; type: functional
[28] = system: PBMC; test: Cytotoxicity in human PBMCs assessed as reduction in cel viability at 50 ug/ml; type: cell-based
[29] = system: HFF-1; test: Cytotoxicity against human HFF1 cells incubated for 72 hrs by WST1 dye based assay; type: cell-based; details: HFF-1, 72 h
[30] = system: Bacillus subtilis; test: Antibacterial activity against Bacillus subtilis; type: functional; details: Bacillus subtilis
[31] = system: T47D; test: Cytotoxicity against human T47D cells; type: functional, cell-based
[32] = system: C32; test: Cytotoxicity against human C32 cells incubated for 72 hrs by WST1 dye based assay; type: functional, cell-based; details: C32, 72 h
[33] = species: Rattus norvegicus; test: Antioxidant activity in albino rat assessed as inhibition of catalase induced H2O2 production; type: functional
[34] = Inhibition of lipoxygenase in rat peritoneal cavity resident cells

CC(C)N(CCSC(=O)N1c2cc(C(F)(F)F)ccc2Sc2cccnc21)C(C)C
MED50 [1]: 0.058 to 1.8 mg/kg

Cc1ccc2c(c1)Sc1c[n+](C)c3ccccc3c1N2.[Cl-]
MIC [2]: 11 µg/mL

C#CCN1c2cccnc2Sc2cccnc21
IC50 [3]: 3.9 µg/mL (≈ 16.3 µM)

CN1CCN(c2cc3c(nn2)Nc2ccccc2S3)CC1
IC50 [4]: > 287 µM

CCOCn1c(=O)[nH]c2c(c1=O)Nc1ccc(C)cc1S2
IC50 [5]: 4.58 µM

C=CCN1c2cccnc2Sc2cccnc21
IC50 [6]: 18.9 µg/mL (≈ 78.3 µM)

CN1c2ccc(O)c(Cl)c2Sc2nccnc21
IC50 [7]: 0.05 to 1 µg/mL (≈ 0.188 to 3.76 µM)
inhibition in vivo at 3 mg/kg [8]: 43%
inhibition in vivo at 5 mg/kg [9]: 47%

O=c1[nH]c2ccc(Cl)cc2c2c1Sc1cc(Cl)ccc1N2
MIC [10]: > 6.25 µg/mL

c1ccc2c(c1)Nc1nnc(N3CCOCC3)cc1S2
IC50 [4]: > 287 µM

CCN(CC)CCSc1nnc2c3c(cnn12)Sc1ccccc1N3
Activity [11]: 54 - 65%

CN1CCCCC1CCN1c2ccc(Cl)cc2Sc2cc3ccccc3nc21 (configuration not stated)
inhibition [12]: 99.9%
IC50 [13]: 0.122 µM

COc1cccc2c3c(c4nc5ccccc5c(=O)n4c12)Sc1cc(C)ccc1N3
inhibition [14]: 45.6 to 47.3%
Activity [15]: 6.8 nM
Activity [16]: 4.5 to 4.6 nM

CC(C)N(CCSC(=O)N1c2ccccc2Sc2cccnc21)C(C)C
MED50 [1]: 0.058 to 1.8 mg/kg

O=[N+]([O-])c1ccc(N2c3nc4ccccc4cc3Sc3cc4ccccc4nc32)cc1
inhibition of growth at 10 µM [17]: 57 to 73%

c1ccc2c(c1)Nc1nnc(N3CCCC3)cc1S2
IC50 [4]: > 287 µM

CSc1nnc2c3c(cnn12)Sc1ccccc1N3
Activity [11]: 54 - 65%

CC(=O)N1CCN(c2ccc(OCC3COC(Cn4ccnc4)(c4ccc(Cl)cc4Cl)O3)cc2)CC1 (configuration not stated) [KETOCONAZOLE]
MIC [18]: 136 µg/mL (≈ 255 µM)
MIC [19]: 136 µg/mL (≈ 255 µM)
MIC [20]: 62.2 µg/mL (≈ 117 µM)

O=C1C(c2ccc(Br)cc2)=C2Sc3cccnc3NC2c2ccccc21 (configuration not stated)
inhibition [21]: < 100%

O=C(O)c1cn(C2CC2)c2c3c(c(F)cc2c1=O)Sc1ccccc1N3
MIC [22]: 0.75 µg/mL (≈ 2.04 µM)
MIC [23]: 3 µg/mL (≈ 8.14 µM)
MIC [24]: 6 µg/mL (≈ 16.3 µM)

Nc1nc(O)c2c(n1)N=c1c(c3c(c4ccccc14)=Nc1ccccc1S3)S2
MIC [25]: 79.4 µg/mL (≈ 198 µM)
MIC [20]: 91.2 µg/mL (≈ 227 µM)

O=C(NCCCl)NCCCN1c2nc3ccccc3cc2Sc2cc3ccccc3nc21
inhibition [12]: 83.2%
IC50 [13]: 2.9 µM

CSc1ccc2c(c1)Sc1cc3ccccc3nc1N2CCC1CCCCN1C (configuration not stated)
inhibition [12]: 99.9%
IC50 [13]: 0.0244 µM

CC(C)N(CCSC(=O)N1c2ccccc2Sc2cc(Cl)cnc21)C(C)C
MED50 [1]: 0.058 to 1.8 mg/kg

CN(C)CCCN1c2cnccc2Sc2cccnc21
inhibition at 50 µg/mL [26]: > 70%
inhibition at 5 µg/mL [27]: > 85%
Activity [28]: <= 22%

O=[N+]([O-])c1cnccc1N1c2cccnc2Sc2cccnc21
IC50 [3]: 4.6 µg/mL (≈ 14.2 µM)
IC50 [29]: ≥ 50 µg/mL

O=[N+]([O-])c1ccc2c(c1)N=c1c(c3c(c4ccccc14)=Nc1ccccc1S3)O2
MIC [30]: 45.7 µg/mL (≈ 115 µM)
MIC [20]: 100 µg/mL (≈ 252 µM)

COc1ccc2c(c1)c1c(c3nc4ccccc4c(=O)n32)Sc2cccc(OC)c2N1
inhibition [14]: 45.6 to 47.3%
Activity [15]: 6.8 nM
Activity [16]: 4.5 to 4.6 nM

C[n+]1cc2c(c3ccccc31)Nc1ccc(Br)cc1S2.[Cl-]
MIC [25]: 26 µg/mL
MIC [2]: 9 µg/mL

CN(C)CCCN1c2ccccc2Sc2cccnc21 [PROTHIPENDYL]
IC50 [31]: 32.3 µg/mL (≈ 113 µM)
IC50 [3]: ≥ 23 µg/mL
IC50 [32]: ≥ 23 µg/mL
IC50 [6]: ≥ 23 µg/mL
IC50 [29]: ≥ 23 µg/mL

CCOCn1c(=O)[nH]c2c(c1=O)Nc1ccc(Cl)cc1S2
IC50 [5]: 4.3 µM

O=C1C(Cl)=C2Sc3cccnc3NC2c2ccccc21 (configuration not stated)
inhibition [21]: < 100%
inhibition (INH) [33]: 77.9%

O=c1[nH]c2c(c(=O)[nH]1)Nc1ccccc1S2 [PYRIMIDOBENZOTHIAZINE]
IC50 [34]: 5.3 µM

COc1ccc2c(c1)[S+]([O-])c1nccnc1N2C (configuration not stated)
inhibition in vivo at 3 mg/kg [8]: 12.5%
